Calls of active or inactive are those of the source.
What was measured:
KB = experiment: Antiviral activity against Rhinovirus type 13 infected in human KB cells assessed as inhibition of virus-induced cytopathic effect; format: functional, cell-based; settings: Human rhinovirus A13
Human alphaherpesvirus 1 = experiment: Antiviral activity against Herpes virus type 1 infected in human KB cells assessed as inhibition of virus-induced cytopathic effect; format: functional, organism-based
Human respirovirus 3 = experiment: Antiviral activity against Parainfluenza virus type 3 infected in human KB cells assessed as inhibition of virus-induced cytopathic effect; format: functional, organism-based

Measured: Activity

Nc1cc2[nH]ncc2c(=O)[nH]1
inactive: KB | Human alphaherpesvirus 1 | Human respirovirus 3
